The values that follow come from patent US10172826B2, “Composition and method to treat and alleviate symptoms of hot flashes in a subject” (U.S. NUTRACEUTICALS, LLC, priority 2015, dated 2019).

Data set [1] concerns the target T1, aromatase (Homo sapiens, UniProt P11511).
T1 sequence (P11511 1-503): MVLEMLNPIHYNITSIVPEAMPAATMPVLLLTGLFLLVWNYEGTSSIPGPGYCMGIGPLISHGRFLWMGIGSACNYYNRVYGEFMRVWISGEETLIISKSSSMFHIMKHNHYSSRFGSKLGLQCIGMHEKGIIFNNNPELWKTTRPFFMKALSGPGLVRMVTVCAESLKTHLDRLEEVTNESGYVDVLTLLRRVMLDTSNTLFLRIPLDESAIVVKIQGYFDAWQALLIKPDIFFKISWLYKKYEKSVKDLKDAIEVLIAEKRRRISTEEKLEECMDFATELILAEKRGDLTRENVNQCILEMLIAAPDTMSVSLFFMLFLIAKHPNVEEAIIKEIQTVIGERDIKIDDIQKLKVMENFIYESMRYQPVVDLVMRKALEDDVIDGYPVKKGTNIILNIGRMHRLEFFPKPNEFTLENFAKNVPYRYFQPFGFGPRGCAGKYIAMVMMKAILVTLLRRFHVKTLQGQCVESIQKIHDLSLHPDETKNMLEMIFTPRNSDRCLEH
As to conditions: cited from earlier work.

The conditions of data set [2]: major metabolite of sesamin; cited from earlier work.
The subject of data set [3] is hot flashes in female subjects experiencing symptoms of perimenopause. Description: Clinical trial of dietary supplement formulas on frequency and severity of hot flashes. Format: in vivo, women. The note with it: summary of the trials. How it is done:
In a clinical trial explained below, 36 mg of HMR Lignan was used and in another example, 20 mg was initially used. In the same clinical trial, the carotenoid such as lycopene was used. The lycopene could be formed as a lycopene complex that includes at least one of phytoene, phytofluene, beta-carotene, tocopherols and phytosterols. In an example, 2 to 10 mg of lycopene was used and in another example, 4 to 8 mg of lycopene was used. In a clinical trial explained below, either 8 or 4 mg of lycopene was used and in an example, 0 mg in order to determine the efficacy of the lycopene relative to the HMR Lignan and other components. The composition also included 40 to 120 mg of Diindolymethane (DIM) or 30 to 140 mg of Diindolymethane, and in an example, 50 milligrams of DIM was used in one trial and 100 milligrams in another trial. About 40 to 80 mg of cranberry was used and in an example, 60 milligrams of cranberry was used as cranberry powder, which gave the coloring and other benefits. Cranberry is used to help relieve adverse urinary symptoms and aid and treat urinary tract infections. Other carotenoids that may possibly be used include at least one of astaxanthin, zeaxanthin, lutein, and xanthophylis.
A study was conducted to evaluate the effectiveness of a dietary supplement formulation on the reduction and severity of hot flashes in women. […]

For data set [4] the following is noted: cited from earlier work.
Data set [5] has as its system estrogen sensitive human breast and endometrial cancer cells. As to conditions: cell cycle progression in G0/G1 phase; cited from earlier work.
The test system of data set [6] is endometrial, breast and lung cancer cell lines. The note with it: compared with alpha or beta-carotene; cited from earlier work.

For the compound `O=C1OC[C@H](Cc2cccc(O)c2)[C@H]1Cc1cccc(O)c1` [Enterolactone, enterolactone], the Aromatase activity entry in data set [1] is recorded as “inhibit aromatase activity”. In addition, the Elimination half life entry in data set [2] is recorded as “less than 6 hours”.
Turning to `CC(C)=CCC/C(C)=C/C=C/C(C)=C/C=C/C(C)=C/C=C/C=C(C)/C=C/C=C(C)/C=C/C=C(\C)CCC=C(C)C` [Lycopene], the “Conclusion on control of hot flashes” value in data set [3] is on record as “work alone to control hot flashes”. In addition, the Solubility in water result in data set [4] was “insoluble”. In data set [5], the “Inhibition of IGF-1 induced proliferation” value is reported as “inhibit”. For the same compound, the “Inhibition of proliferation, relative potency” value in data set [6] was “more potent that alpha or beta-carotene”.
